Assay results as given in PubChem BioAssay (NCI).
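Exposure lasted 48 hours, with cells grown in 96-well plates and compounds tested at five concentrations. GI50 marks 50% less growth. At the TGI there is no net growth.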

Columns and labels:
Test in all cases: NCI anticancer screen, dose series, 48 h
OVCAR-8 ovarian = system: OVCAR-8 ovarian
HCC-2998 colon = system: HCC-2998 colon
U251 CNS = system: U251 CNS
EKVX NSCLC = system: EKVX NSCLC
SK-MEL-2 melanoma = system: SK-MEL-2 melanoma
HOP-92 NSCLC = system: HOP-92 NSCLC
SK-MEL-28 melanoma = system: SK-MEL-28 melanoma
UACC-62 melanoma = system: UACC-62 melanoma
SNB-19 CNS = system: SNB-19 CNS
MDA-MB-435 = system: MDA-MB-435
SK-MEL-5 melanoma = system: SK-MEL-5 melanoma
OVCAR-5 ovarian = system: OVCAR-5 ovarian
MOLT-4 leukemia = system: MOLT-4 leukemia
OVCAR-3 ovarian = system: OVCAR-3 ovarian
SR leukemia = system: SR leukemia
HCT-116 colon = system: HCT-116 colon
MALME-3M melanoma = system: MALME-3M melanoma
RPMI-8226 leukemia = system: RPMI-8226 leukemia
SNB-75 CNS = system: SNB-75 CNS
KM12 colon = system: KM12 colon
RXF 393 renal = system: RXF 393 renal
TK-10 renal = system: TK-10 renal
MCF7 breast = system: MCF7 breast
NCI-H522 lung = system: NCI-H522 lung
ACHN renal = system: ACHN renal
786-0 renal = system: 786-0 renal
HCT-15 colon = system: HCT-15 colon
SF-539 CNS = system: SF-539 CNS
BT-549 breast = system: BT-549 breast

CS(=O)(=O)Nc1cc(-c2ccc3ncnc(Nc4ccc5c(cnn5Cc5cccc(F)c5)c4)c3c2)cnc1Cl
GI50 (OVCAR-8 ovarian): 1570 nM
TGI (OVCAR-8 ovarian): > 100 µM
GI50 (HCC-2998 colon): 829 nM
TGI (HCC-2998 colon): 2550 nM
GI50 (U251 CNS): 419 nM
TGI (U251 CNS): 3.17 µM
GI50 (EKVX NSCLC): 479 nM
TGI (EKVX NSCLC): 4.7 µM
GI50 (SK-MEL-2 melanoma): 275 nM
TGI (SK-MEL-2 melanoma): 1210 nM
GI50 (HOP-92 NSCLC): 56.2 nM
TGI (HOP-92 NSCLC): 460 nM
GI50 (SK-MEL-28 melanoma): 316 nM
TGI (SK-MEL-28 melanoma): 1860 nM
GI50 (UACC-62 melanoma): 324 nM
TGI (UACC-62 melanoma): 1690 nM
GI50 (SNB-19 CNS): 575 nM
TGI (SNB-19 CNS): 3.65 µM
GI50 (MDA-MB-435): 628 nM
TGI (MDA-MB-435): 2300 nM
GI50 (SK-MEL-5 melanoma): 397 nM
TGI (SK-MEL-5 melanoma): 1440 nM
GI50 (OVCAR-5 ovarian): 608 nM
TGI (OVCAR-5 ovarian): 7.3 µM
GI50 (MOLT-4 leukemia): 318 nM
TGI (MOLT-4 leukemia): 3.38 µM
GI50 (OVCAR-3 ovarian): 293 nM
TGI (OVCAR-3 ovarian): 1890 nM
GI50 (SR leukemia): 507 nM
TGI (SR leukemia): > 100 µM
GI50 (HCT-116 colon): 480 nM
TGI (HCT-116 colon): 1840 nM
GI50 (MALME-3M melanoma): 201 nM
TGI (MALME-3M melanoma): 1300 nM
GI50 (RPMI-8226 leukemia): 396 nM
TGI (RPMI-8226 leukemia): 2050 nM
GI50 (SNB-75 CNS): 32.1 nM
TGI (SNB-75 CNS): 457 nM
GI50 (KM12 colon): 1140 nM
TGI (KM12 colon): 4.25 µM
GI50 (RXF 393 renal): 294 nM
TGI (RXF 393 renal): 1450 nM
GI50 (TK-10 renal): 277 nM
TGI (TK-10 renal): 2190 nM
GI50 (MCF7 breast): 201 nM
TGI (MCF7 breast): 1650 nM
GI50 (NCI-H522 lung): 381 nM
TGI (NCI-H522 lung): 2740 nM
GI50 (ACHN renal): 1630 nM
TGI (ACHN renal): 15.4 µM
GI50 (786-0 renal): 456 nM
TGI (786-0 renal): 5.41 µM
GI50 (HCT-15 colon): 1110 nM
TGI (HCT-15 colon): 8.01 µM
GI50 (SF-539 CNS): 361 nM
TGI (SF-539 CNS): 1750 nM
GI50 (BT-549 breast): 227 nM
TGI (BT-549 breast): 1050 nM
